Experiments:
[1] = molecular target: T1, α7 nicotinic receptor subtype expressed in Xenopus oocytes (Rattus norvegicus, UniProt Q05941); test: Inhibition of ACh evoked current through nicotinic receptors expressed in Xenopus oocytes (α7); type: cell-based; settings: co-application with acetylcholine; compared with α4β2, α3β2, α3β4; FIGS. 1-3
T1 construct: expressed in transfected cells; host or cells: Xenopus laevis oocytes injected with subunit cRNA
Procedure: Rat nicotinic receptor cDNAs clones were linearized and purified, and RNA transcripts were prepared in vitro using the appropriate mMessage mMachine kit. Mature (>9 cm) female Xenopus laevis African toads (Nasco, Ft. Atkinson, Wis.), housed in the Division of Lab Animal Resources at the University of Florida were used as a source of oocytes. Prior to surgery, frogs were anesthetized by placing the animal in a 1.5 g/L solution of MS222 for 30 minutes. Oocytes were removed from an incision made in the abdomen. In order to remove the follicular cell layer, harvested oocytes were treated with 1.25 mg/mL collagenase for 2 hours at room temperature in calcium-free Barth's solution (88 mM NaCl, 1 mM KCl, 2.38 mM NaHCO3, 0.82 mM MgSO4, 15 mM HEPES, pH 7.6, 0.1 mg/mL gentamicin sulfate). Subsequently, stage 5 oocytes were isolated and injected with 5-20 ng in 50 nL each of the appropriate subunit cRNAs. Recordings were made 2 to 15 days after injection.
Electrophysiology experiments were conducted using OpusXpress 6000A (Axon instruments, Union City, Calif.), or manual oocyte two-electrode voltage-clamp systems as previously reported (Stokes et al., 2004). […]
Each oocyte received two initial control applications of ACh, then a nicotine or analog application, and then a follow-up control application of ACh. […] Responses to each nicotine or analog application were calculated relative to the preceding ACh control responses in order to normalize the data, compensating for the varying levels of channel expression among the oocytes. […] Responses for α7 receptors were calculated as net charge (Papke et al., 2002). For subtypes other than α7, responses were calculated from the peak current amplitudes. Means and standard errors (SEM) were calculated from the normalized responses of at least four oocytes for each drug concentration. […]
For concentration-response relations, data derived from net-charge analyses were plotted using Kaleidagraph 3.0.2 (Abelbeck Software; Reading, Pa.) and curves were generated from the Hill equation […]

[2] = tested on: NIC-evoked [3H]DA release from rat striatal slices; test: Nicotine-evoked [3H]dopamine release assay, superfused rat striatal slices; type: cell-based; settings: 100 nM analog superfused 60 minutes prior to NIC (10 μM), percent of that in the absence of analog
Procedure: Rat striatal slices (500 μm thickness, 6-8 mg wet weight) were incubated for 30 minutes in Krebs buffer (118 mM NaCl, 4.7 mM KCl, 1.2 mM MgCl2, 1.0 mM NaH2PO4, 1.3 mM CaCl2, 11.1 mM glucose, 25 mM NaHCO3, 0.11 mM L-ascorbic acid and 0.004 mM disodium EDTA; pH 7.4, and saturated with 95% O2/5% CO2) in a metabolic shaker at 34° C. Slices were rinsed with 15 mL of fresh buffer and incubated for an additional 30 minutes in fresh buffer containing 0.1 μM [^3H]dopamine (DA; 6 slices/3 mL). Subsequently, slices were rinsed with 15 mL of fresh buffer and transferred to a glass superfusion chamber. Slices were superfused (1.0 mL/min) for 60 minutes with Krebs buffer containing nomifensine (10 μM) and pargyline (10 μM) and maintained at 34° C., pH 7.4 with continual aeration (95% O2/5% CO2). Two five minute samples (5 mL each) were collected to determine basal outflow of [^3H]DA. Analogs were added to the superfusion buffer after the collection of the second sample and remained in the buffer until 12 consecutive five minute samples were collected. Subsequently, S-(−)-nicotine (10 μM) was added to the buffer and an additional 12 consecutive five minute samples were collected. At the end of the experiment, each slice was solubilized and the [^3H] content of the tissue determined.
Radioactivity in the superfusate and tissue samples were determined by liquid scintillation spectroscopy. Fractional release for tritium collected in each sample was divided by the total tritium present at the time of sample collection and was expressed as a percentage of total tritium. Basal [^3H] outflow was calculated from the average of the tritium collected in the two five-minute samples just before addition of the analog. The sum of the increase in collected tritium resulting from either exposure to the test compound or exposure to S-(−)-nicotine in the absence cod presence of the test compound equaled total [^3H] overflow. [^3H] Overflow was calculated by subtracting the [^3H] outflow during an equivalent period of prestimulation from the values in samples collected during and after drug exposure. Inasmuch as the radiolabelled compounds were not separated and identified, the tritium in the superfusate is referred to as either [^3H] outflow or [^3H] overflow, rather than [^3H]DA. [^3H] Overflow primarily represents [^3H]DA in the presence of nomifesine and pargyline in the superfusion buffer. […]
Analogs were also evaluated for their ability to inhibit NIC evoked [^3H]DA release. In these experiments, the striatal slices were superfused for 60 minutes with 100 nM concentration of the analogs prior to NIC (10 μM) exposure. Antagonist activity was evaluated by comparing the NIC-evoked [^3H] overflow in the absence and presence of the analogs. The relative order of potency of the analogs for inhibition of NIC-evoked [^3H]DA release from rat striatal slices is illustrated in Table 1.
Data are % inhibition at 100 nM concentration of analog for at least 1-3 independent experiments. Specific binding in the [^3H]NIC binding assay is calculated at the difference between the total binding of [^3H]NIC and nonspecific binding in the presence of 10 μM cold nicotine. Specific binding for the [^3H]MLA binding assay is calculated as the difference between the total binding of 2.5 nM [^3H]MLA to the receptors alone and its nonspecific binding in the presence of 1 μM cold MLA. Analog-induced inhibition of nicotine-evoked [^3H]DA release is calculated as a percent of that in the absence of analog.

T1 sequence (Q05941 23-502): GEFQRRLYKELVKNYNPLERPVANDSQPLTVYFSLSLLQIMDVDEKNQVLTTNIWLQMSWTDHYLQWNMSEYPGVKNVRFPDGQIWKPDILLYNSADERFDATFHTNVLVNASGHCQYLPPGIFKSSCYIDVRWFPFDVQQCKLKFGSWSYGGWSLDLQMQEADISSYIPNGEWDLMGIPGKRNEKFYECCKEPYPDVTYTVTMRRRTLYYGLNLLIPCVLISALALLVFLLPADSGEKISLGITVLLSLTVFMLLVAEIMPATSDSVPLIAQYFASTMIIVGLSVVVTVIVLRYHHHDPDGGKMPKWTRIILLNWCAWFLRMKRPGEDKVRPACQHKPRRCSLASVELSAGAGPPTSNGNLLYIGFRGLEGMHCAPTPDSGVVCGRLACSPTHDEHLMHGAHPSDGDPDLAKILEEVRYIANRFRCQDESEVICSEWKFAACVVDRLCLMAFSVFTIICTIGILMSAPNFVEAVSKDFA

| Compound | inhibition of ACh response at α7 nicotinic receptor subtype (concentration-response, in words) [1] | inhibition at 0.1 µM [2] [%] |
| --- | --- | --- |
| CCCCc1ccc[n+](CCCC#Cc2cc(C#CCCC[n+]3cccc(CCCC)c3)cc(C#CCCC[n+]3cccc(CCCC)c3)c2)c1 [GZ551A, 1,3,5-tris-[5-(3-butyl-pyridinium)-pent-1-ynyl]-benzene tribromide] | potent and selective inhibitor | 52 |
| CN1CCC[C@H]1c1ccc[n+](CCCC#Cc2cc(C#CCCC[n+]3cccc([C@@H]4CCCN4C)c3)cc(C#CCCC[n+]3cccc([C@@H]4CCCN4C)c3)c2)c1 [GZ551B, 1,3,5-tris-{5-[3-(1-methyl-2-S-pyrrolidinyl)pyridinium]-pent-1-ynyl}-benzene tribromide] | most potent as an inhibitor of the α7 nicotinic receptor subtype, but was not selective | 63 |
| CN1CCC[C@H]1c1ccc[n+](CCCCCc2cc(CCCCC[n+]3cccc([C@@H]4CCCN4C)c3)cc(CCCCC[n+]3cccc([C@@H]4CCCN4C)c3)c2)c1 [GZ558C, 1,3,5-tris-{5-[3-(1-methyl-2-S-pyrrolidinyl)pyridinium]-pentyl}-benzene tribromide] | potent and selective inhibitor | 35 |
